Reference: patent publication US9988407B2, “Prodrugs of prostate specific membrane antigen (PSMA) inhibitor” (THE JOHNS HOPKINS UNIVERSITY, priority 2014, dated 2018)
“And” between values parts separate entries of the source, which are not always exact repeats. Equal values may be shown once.

Legend:
[1] = Metabolic stability in mouse liver microsomes; assay type: in vitro ADME; settings: 10 μM, 37° C.
Method in brief: (§1)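 Prodrugs at 10 μM were incubated in plasma or liver microsomes at 37° C, with triplicate samples taken at 0, 30 and 60 min and quenched in cold acetonitrile. Loss of prodrug was followed by LC/MS/MS in positive electrospray mode. Percent remaining came from the analyte-to-internal-standard peak-area ratio.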

[2] = In vivo pharmacokinetics in mice, peroral, bioanalysis method 2 (2-PMPA release); settings: rodents and dogs
Protocol: Blood was obtained via cardiac puncture and tissue dissected at 0 min, 15 min, 30 min, 1 h, 2 h, and 4 h post dose (n=3 per time point). Single time point studies were conducted at 30 min (N=3) following dosing. Plasma was harvested from blood by centrifugation. Mean concentration-time data was used for pharmacokinetic (PK) analysis. Non-compartmental-analysis module in WinNonlin® (version 5.3) was used to assess pharmacokinetic parameters. Peak plasma concentrations (Cmax) and time to Cmax (Tmax) were the observed values. Area under the curve (AUC) was calculated by log-linear (p.o.) trapezoidal rule to the end of sample collection (AUClast) and extrapolated to infinity (AUC0-∞) by dividing the last quantifiable concentration by the terminal disposition rate constant (ke). […] The tissues were stored in −20° C. for 1 h and then homogenized. The calibration curve for the tissues was developed using naïve mouse brains from untreated animals as a matrix. For sciatic nerve, the nerves were weighed and homogenized in 50 μL methanol and the calibration curve was developed using naïve sciatic nerves from untreated animals as a matrix. The samples were vortexed and centrifuged. […] Supernatant was dried under a gentle stream of nitrogen at 45° C. and the residue reconstituted with 75 μL of acetonitrile and vortexed. 25 μL of derivatizing agent N-tert-Butyldimethysilyl-N-methyltrifluoro-acetamide (MTBSTFA) was added to microcentrifuge tubes, vortexed, and heated at ˜60 OC for 40 min. At the end of 40 min, the derivatized samples ˜75 μL were transferred to a 250 μL polypropylene vials and were analyzed via LC/MS/MS. Chromatographic analysis was performed using an Accela™ ultra high-performance system consisting of an analytical pump, and an autosampler coupled with TSQ Vantage mass spectrometer (Thermo Fisher Scientific Inc., Waltham Mass.). […] The total run time for each analyte was 5.0 min. Chromatographic analysis will be performed on Accela UPLC.

[3] = Metabolic stability in monkey plasma; assay type: in vitro ADME; settings: 10 μM, 37° C.
Protocol: (§2) For metabolic stability, plasma (mouse, dog, monkey and human) and liver microsomes (mouse, dog, monkey and human) were used. For stability, prodrugs (10 μM) were spiked in each matrix and incubated in an orbital shaker at 37° C. At predetermined times (0, 30 and 60 min), 100 μL aliquots of the mixture in triplicate were removed and the reaction quenched by addition of three times the volume of ice cold acetonitrile spiked with the internal standard (losartan 5 μM). The samples were vortexed for 30 s and centrifuged 12000 g for 10 min. 50 μL supernatant diluted with 50 μL water was transferred to a 250 μL polypropylene vial sealed with a Teflon cap. Prodrug disappearance was monitored over time using a liquid chromatography and tandem mass spectrometry (LC/MS/MS) method as described below.
(§3) For LC/MS/MS, prodrugs were separated with Thermo Scientific Accela UPLC system coupled to Accela open autosampler on an Agilent C18 (100×2.1 mm id) UPLC column. The autosampler was temperature controlled and operating at 10° C. The mobile phase used for the chromatographic separation was composed of acetonitrile/water containing 0.1% formic acid and was run at a flow rate of 0.5 mL/minute for 4.5 minutes using gradient elution. The column effluent was monitored using TSQ Vantage triple-quadrupole mass spectrometric detector, equipped with an electrospray probe set in the positive ionization mode. Samples were introduced into the ionization source through a heated nebulized probe (350° C.).
(§4) For quantification of compound remaining, disappearance of prodrugs was measured from ratio of peak areas of analyte to IS. Percentage remaining was calculated in the following manner: […]

[4] = Metabolic stability in monkey liver microsomes; assay type: in vitro ADME; settings: 10 μM, 37° C.
Protocol: as §2, §3, §4

[5] = Metabolic stability in human liver microsomes; assay type: in vitro ADME; settings: 10 μM, 37° C.
Method in brief: as §1

[6] = Chemical stability in HBSS buffer (pH 7.4) / simulated gastric fluid; assay type: physicochemical; settings: chemical hydrolysis / HBSS buffer
Protocol: The chemical stability of prodrugs was evaluated using simulated gastric fluid (pH 1.2) and Hanks' Balanced Salt Solution (HBSS) buffer (pH 7.4). Briefly, prodrugs were spiked (10 μM) in respective solutions and incubated at 37° C. for 1 h. At predetermined time points (0, 30 and 60 min), aliquots of 100 μL were removed and diluted with 100 μL of water. Prodrug disappearance was monitored using the developed liquid chromatography and tandem mass spectrometry (LC/MS/MS) method described below.
as §3, §4

CC(C)OC(=O)OCOC(=O)C(CCC(=O)O)CP(=O)(OCOC(=O)OC(C)C)OCOC(=O)OC(C)C (centres unmarked) [Compound 10]
Percentage remaining ([1]; 0 min): 100%
Percentage remaining ([1]; 30 min): 1%
Percentage remaining ([1]; 60 min): 0%
oral bioavailability [2]: excellent oral bioavailability
Percentage remaining ([3]; 0 min): 100%
Percentage remaining ([3]; 30 min): 50%
Percentage remaining ([3]; 60 min): 11%
Percentage remaining ([4]; 0 min): 100%
Percentage remaining ([4]; 30 min): 0%
Percentage remaining ([4]; 60 min): 0%
Percentage remaining ([5]; 0 min): 100%
Percentage remaining ([5]; 30 min, listed as TRIS-POC): 5% and 3%
Percentage remaining ([5]; 60 min): 0%
chemical stability [6]: sufficient chemical stability
